{"source": "paper PMC5218480", "about": "(PLoS ONE, 2017)", "test_system": "MV-4-11 cells", "assay": "Gene expression microarray analysis (Affymetrix PrimeView) and GSEA", "format": "cell-based, human", "set-up": "RFU PODN (11730768_x_at) / Fold change /veh PODN (11730768_x_at) / RFU LINC00158 (11744669_a_at) / Fold change /veh LINC00158 (11744669_a_at) / RFU DUSP10 (11751237_a_at) / Fold change /veh DUSP10 (11751237_a_at) / RFU ID3 (11757404_x_at) / Fold change /veh ID3 (11757404_x_at) / RFU PLEKHG5 (11737974_s_at) / Fold change /veh PLEKHG5 (11737974_s_at) / RFU LRRC4B (11730491_at) / Fold change /veh LRRC4B (11730491_at) / RFU GIMAP4 (11747438_a_at) / Fold change /veh GIMAP4 (11747438_a_at) / RFU KRT8 (11758183_x_at) / Fold change /veh KRT8 (11758183_x_at) / RFU CNN1 (11734310_a_at) / Fold change /veh CNN1 (11734310_a_at) / RFU VPS37D (11726825_at) / Fold change /veh VPS37D (11726825_at) / RFU C10orf10 (11716522_x_at) / Fold change /veh C10orf10 (11716522_x_at) / RFU KIR2DL2 /// KIR2DL4 /// KIR2DL5A /// KIR2DL5B /// KIR2DS1 /// KIR2DS2 /// KIR2DS3 /// KIR2DS4 /// KIR3DL3 /// KIR3DL3 /// KIR3DS1 (11738374_at) / Fold change /veh KIR2DL2 /// KIR2DL4 /// KIR2DL5A /// KIR2DL5B /// KIR2DS1 /// KIR2DS2 /// KIR2DS3 /// KIR2DS4 /// KIR3DL3 /// KIR3DL3 /// KIR3DS1 (11738374_at) / RFU C1QL1 (11718748_at) / Fold change /veh C1QL1 (11718748_at) / RFU TMPRSS4 (11747572_a_at) / Fold change /veh TMPRSS4 (11747572_a_at) / RFU HAMP (11756126_x_at) / Fold change /veh HAMP (11756126_x_at) / RFU RNFT2 (11725882_a_at) / Fold change /veh RNFT2 (11725882_a_at) / RFU NR4A2 (11747474_a_at) / Fold change /veh NR4A2 (11747474_a_at) / RFU ABCC12 (11746883_a_at) / Fold change /veh ABCC12 (11746883_a_at) / RFU TMEM136 (11760407_x_at) / Fold change /veh TMEM136 (11760407_x_at) / RFU CLDN22 /// WWC2 (11732394_at) / Fold change /veh CLDN22 /// WWC2 (11732394_at) / RFU HLA-DPB1 (11760878_x_at) / Fold change /veh HLA-DPB1 (11760878_x_at) / RFU SPINT1 (11716480_a_at) / Fold change /veh SPINT1 (11716480_a_at) / RFU GAP43 (11754022_s_at) / Fold change /veh GAP43 (11754022_s_at) / RFU A4GNT (11735810_at) / Fold change /veh A4GNT (11735810_at) / RFU PRB3 (11715151_x_at) / Fold change /veh PRB3 (11715151_x_at) / RFU TUBB4B (11761932_at) / Fold change /veh TUBB4B (11761932_at) / RFU CAPN14 (11732068_a_at) / Fold change /veh CAPN14 (11732068_a_at) / RFU TMCC2 (11721928_a_at) / Fold change /veh TMCC2 (11721928_a_at) / RFU IRGQ (11745062_a_at) / Fold change /veh IRGQ (11745062_a_at) / RFU FAM174B (11720279_a_at) / Fold change /veh FAM174B (11720279_a_at) / RFU TMPRSS4 (11748680_a_at) / Fold change /veh TMPRSS4 (11748680_a_at) / RFU FAM212B (11763350_a_at) / Fold change /veh FAM212B (11763350_a_at) / RFU PLEKHG5 (11743358_a_at) / Fold change /veh PLEKHG5 (11743358_a_at) / RFU ZSCAN30 (11745921_a_at) / Fold change /veh ZSCAN30 (11745921_a_at) / RFU CMKLR1 (11741424_a_at) / Fold change /veh CMKLR1 (11741424_a_at) / RFU LOC101060620 /// MAPK8IP1 (11723275_at) / Fold change /veh LOC101060620 /// MAPK8IP1 (11723275_at) / RFU SPTSSB (11747773_x_at) / Fold change /veh SPTSSB (11747773_x_at) / RFU PRSS12 (11739890_at) / Fold change /veh PRSS12 (11739890_at) / RFU BIN1 (11741810_x_at) / Fold change /veh BIN1 (11741810_x_at) / RFU WNT11 (11732464_a_at) / Fold change /veh WNT11 (11732464_a_at) / RFU C10orf10 (11716521_a_at) / Fold change /veh C10orf10 (11716521_a_at) / RFU C5orf56 (11738089_at) / Fold change /veh C5orf56 (11738089_at) / RFU CYB561 (11721691_x_at) / Fold change /veh CYB561 (11721691_x_at) / RFU ANKRD19P (11752326_a_at) / Fold change /veh ANKRD19P (11752326_a_at) / RFU OR2T12 /// OR2T33 /// OR2T8 (11738714_s_at) / Fold change /veh OR2T12 /// OR2T33 /// OR2T8 (11738714_s_at) / RFU VCAN (11748164_a_at) / Fold change /veh VCAN (11748164_a_at) / RFU JSRP1 (11732532_at) / Fold change /veh JSRP1 (11732532_at) / RFU KRTAP10-11 (11738290_x_at) / Fold change /veh KRTAP10-11 (11738290_x_at) / RFU MYO3A (11730013_a_at) / Fold change /veh MYO3A (11730013_a_at) / RFU EBF3 (11725865_a_at) / Fold change /veh EBF3 (11725865_a_at) / RFU CAMK2N1 (11719241_x_at) / Fold change /veh CAMK2N1 (11719241_x_at) / RFU C5orf56 (11738088_a_at) / Fold change /veh C5orf56 (11738088_a_at) / RFU OLFML3 (11715873_a_at) / Fold change /veh OLFML3 (11715873_a_at) / RFU LOC100653217 /// NTM (11731650_a_at) / Fold change /veh LOC100653217 /// NTM (11731650_a_at) / RFU MAPK11 (11762145_a_at) / Fold change /veh MAPK11 (11762145_a_at) / RFU FIZ1 (11724087_x_at) / Fold change /veh FIZ1 (11724087_x_at) / RFU OASL (11726364_x_at) / Fold change /veh OASL (11726364_x_at) / RFU SOX15 (11748057_x_at) / Fold change /veh SOX15 (11748057_x_at) / RFU CD79A (11719716_a_at) / Fold change /veh CD79A (11719716_a_at) / RFU HIST1H1D (11736915_at) / Fold change /veh HIST1H1D (11736915_at) / RFU CASKIN2 (11723855_a_at) / Fold change /veh CASKIN2 (11723855_a_at) / RFU LOC730098 (11760151_x_at) / Fold change /veh LOC730098 (11760151_x_at) / RFU OR4N2 (11742367_at) / Fold change /veh OR4N2 (11742367_at) / RFU PRRT2 (11749266_a_at) / Fold change /veh PRRT2 (11749266_a_at) / RFU SNX32 (11753110_a_at) / Fold change /veh SNX32 (11753110_a_at) / RFU CDHR5 (11726645_a_at) / Fold change /veh CDHR5 (11726645_a_at) / RFU RCAN1 (11760418_a_at) / Fold change /veh RCAN1 (11760418_a_at) / RFU FAM167A (11723789_a_at) / Fold change /veh FAM167A (11723789_a_at) / RFU FAM26E (11764081_at) / Fold change /veh FAM26E (11764081_at) / RFU ISYNA1 (11749810_s_at) / Fold change /veh ISYNA1 (11749810_s_at) / RFU ACY1 (11761880_at) / Fold change /veh ACY1 (11761880_at) / RFU 11764098_at / Fold change /veh 11764098_at / RFU SAMD14 (11745864_x_at) / Fold change /veh SAMD14 (11745864_x_at) / RFU NPB (11741838_a_at) / Fold change /veh NPB (11741838_a_at) / RFU TMPRSS6 (11731388_a_at) / Fold change /veh TMPRSS6 (11731388_a_at) / RFU KRTAP10-2 (11738614_at) / Fold change /veh KRTAP10-2 (11738614_at) / RFU ARHGAP8 /// PRR5-ARHGAP8 (11727945_x_at) / Fold change /veh ARHGAP8 /// PRR5-ARHGAP8 (11727945_x_at) / RFU KRTAP5-7 /// NADSYN1 (11734609_at) / Fold change /veh KRTAP5-7 /// NADSYN1 (11734609_at) / RFU RASL12 (11751679_a_at) / Fold change /veh RASL12 (11751679_a_at) / RFU CDKN2B (11736163_a_at) / Fold change /veh CDKN2B (11736163_a_at) / RFU PRF1 (11729649_at) / Fold change /veh PRF1 (11729649_at) / RFU, ZNF638 /// ZNF638-IT1 / Fold change vs veh, ZNF638 /// ZNF638-IT1 / RFU, PANK3 / Fold change vs veh, PANK3 / RFU, SH3YL1 / Fold change vs veh, SH3YL1 / RFU, ZEB2 / Fold change vs veh, ZEB2 / RFU, NRIP1 / Fold change vs veh, NRIP1 / RFU, PTTG1IP / Fold change vs veh, PTTG1IP / RFU, CAPN2 / Fold change vs veh, CAPN2 / RFU, MED14 / Fold change vs veh, MED14 / RFU, SNORA58 / Fold change vs veh, SNORA58 / RFU, C1orf63 / Fold change vs veh, C1orf63 / RFU, LRRFIP1 / Fold change vs veh, LRRFIP1 / RFU, NDUFAF7 / Fold change vs veh, NDUFAF7 / RFU, SLC12A2 / Fold change vs veh, SLC12A2 / RFU, IBTK / Fold change vs veh, IBTK / RFU, ESF1 / Fold change vs veh, ESF1 / Fold change vs veh, TMEM50B / RFU, TAOK1 / Fold change vs veh, TAOK1 / RFU, ACBD3 / Fold change vs veh, ACBD3 / RFU, TMA16 / Fold change vs veh, TMA16 / RFU, RWDD3 / Fold change vs veh, RWDD3 / RFU, BCAT1 / Fold change vs veh, BCAT1 / RFU, EDEM3 / Fold change vs veh, EDEM3 / RFU, TMEM33 / Fold change vs veh, TMEM33 / RFU, WDR75 / Fold change vs veh, WDR75 / RFU, AHCTF1 / Fold change vs veh, AHCTF1 / RFU, TFRC / Fold change vs veh, TFRC / RFU, ZDHHC17 / Fold change vs veh, ZDHHC17 / RFU, NOM1 / Fold change vs veh, NOM1 / RFU, ARL8B / Fold change vs veh, ARL8B / RFU, ZBTB11 / Fold change vs veh, ZBTB11 / RFU, TAMM41 / Fold change vs veh, TAMM41 / RFU, KIAA1704 /// LOC100996395 / Fold change vs veh, KIAA1704 /// LOC100996395 / RFU, ING1 / Fold change vs veh, ING1 / RFU, TRMT61B / Fold change vs veh, TRMT61B / RFU, FUBP3 / Fold change vs veh, FUBP3 / RFU, TP53 / Fold change vs veh, TP53 / RFU, TNKS2 / Fold change vs veh, TNKS2 / RFU, ZFP14 / Fold change vs veh, ZFP14 / RFU, ACTR2 / Fold change vs veh, ACTR2 / RFU, PPP3R1 / Fold change vs veh, PPP3R1 / RFU, PIK3R1 / Fold change vs veh, PIK3R1 / RFU, HNRNPA1 / Fold change vs veh, HNRNPA1 / RFU, RNF170 / Fold change vs veh, RNF170 / RFU, ZNF28 / Fold change vs veh, ZNF28 / RFU, RNGTT / Fold change vs veh, RNGTT / RFU, OGT / Fold change vs veh, OGT / RFU, BRD1 / Fold change vs veh, BRD1 / RFU, MARS / Fold change vs veh, MARS / RFU, ZNF655 / Fold change vs veh, ZNF655 / RFU, FAHD1 / Fold change vs veh, FAHD1 / RFU, BDP1 / Fold change vs veh, BDP1 / RFU, LRRCC1 / Fold change vs veh, LRRCC1 / RFU, ARID1A / Fold change vs veh, ARID1A / RFU, ZNF146 / Fold change vs veh, ZNF146 / RFU, ZNF330 / Fold change vs veh, ZNF330 / RFU, GPN3 / Fold change vs veh, GPN3 / RFU, C9orf123 / Fold change vs veh, C9orf123 / RFU, N4BP2L2 / Fold change vs veh, N4BP2L2 / RFU, ARFIP1 / Fold change vs veh, ARFIP1 / RFU, FAM179B / Fold change vs veh, FAM179B / RFU, BCL10 / Fold change vs veh, BCL10 / RFU, UHRF1BP1L / Fold change vs veh, UHRF1BP1L / RFU, BET1 / Fold change vs veh, BET1 / RFU, CNOT2 / Fold change vs veh, CNOT2 / RFU, ZNF268 / Fold change vs veh, ZNF268 / Fold change vs veh, ZNF507 / RFU, DGCR2 / Fold change vs veh, DGCR2 / RFU, WDSUB1 / Fold change vs veh, WDSUB1 / Fold change vs veh, HSP90B1 /// MIR3652 / RFU, ADSS / Fold change vs veh, ADSS / RFU, GK / Fold change vs veh, GK / RFU, ZNF148 / Fold change vs veh, ZNF148 / RFU, TAF9 / Fold change vs veh, TAF9 / RFU, SLC1A5 / Fold change vs veh, SLC1A5 / RFU, SLMO2 / Fold change vs veh, SLMO2 / RFU, ABCC4 / Fold change vs veh, ABCC4 / RFU, LOC101060439 /// RAP1B / Fold change vs veh, LOC101060439 /// RAP1B / RFU, RFX7 / Fold change vs veh, RFX7 / RFU, GTPBP10 / Fold change vs veh, GTPBP10 / RFU, CNEP1R1 / Fold change vs veh, CNEP1R1 / RFU, BIVM-ERCC5 /// ERCC5 / Fold change vs veh, BIVM-ERCC5 /// ERCC5 / RFU, ILF3 / Fold change vs veh, ILF3 / RFU 11762660_at / Fold change /veh 11762660_at / RFU VCAN (11757783_s_at) / Fold change /veh VCAN (11757783_s_at) / RFU DDX43 (11728927_at) / Fold change /veh DDX43 (11728927_at) / RFU KRT8 (11758188_x_at) / Fold change /veh KRT8 (11758188_x_at) / RFU NKD1 (11759106_at) / Fold change /veh NKD1 (11759106_at) / RFU SRD5A1 (11742802_a_at) / Fold change /veh SRD5A1 (11742802_a_at) / RFU TPSAB1 /// TPSB2 (11721975_s_at) / Fold change /veh TPSAB1 /// TPSB2 (11721975_s_at) / RFU GSTM3 (11746129_a_at) / Fold change /veh GSTM3 (11746129_a_at) / RFU IL23R (11737362_x_at) / Fold change /veh IL23R (11737362_x_at) / RFU TMEM51 (11727254_a_at) / Fold change /veh TMEM51 (11727254_a_at) / RFU PIWIL2 (11732686_x_at) / Fold change /veh PIWIL2 (11732686_x_at) / RFU ORM1 (11744905_x_at) / Fold change /veh ORM1 (11744905_x_at) / RFU CCDC152 (11743942_at) / Fold change /veh CCDC152 (11743942_at) / RFU ECM1 (11717891_a_at) / Fold change /veh ECM1 (11717891_a_at) / RFU IL23R (11748794_a_at) / Fold change /veh IL23R (11748794_a_at) / RFU TNFAIP8L3 (11732012_x_at) / Fold change /veh TNFAIP8L3 (11732012_x_at) / RFU MBOAT4 (11741988_at) / Fold change /veh MBOAT4 (11741988_at) / RFU 11764193_at / Fold change /veh 11764193_at / RFU TMEM53 (11763286_at) / Fold change /veh TMEM53 (11763286_at) / RFU MAGEB2 (11727129_at) / Fold change /veh MAGEB2 (11727129_at) / RFU TMEM200A (11744735_a_at) / Fold change /veh TMEM200A (11744735_a_at) / RFU CCDC152 (11751479_a_at) / Fold change /veh CCDC152 (11751479_a_at) / RFU FAM211A (11726209_a_at) / Fold change /veh FAM211A (11726209_a_at) / RFU RGS16 (11746705_a_at) / Fold change /veh RGS16 (11746705_a_at) / RFU VCAN (11755009_s_at) / Fold change /veh VCAN (11755009_s_at) / RFU RHOB (11743442_s_at) / Fold change /veh RHOB (11743442_s_at) / RFU RGS16 (11720943_a_at) / Fold change /veh RGS16 (11720943_a_at) / RFU RGS16 (11720944_at) / Fold change /veh RGS16 (11720944_at) / RFU, VPS4B / Fold change vs veh, VPS4B / RFU, CREB1 / Fold change vs veh, CREB1 / RFU, DNAJC13 / Fold change vs veh, DNAJC13 / RFU, GNAQ / Fold change vs veh, GNAQ / RFU, CDK5R1 / Fold change vs veh, CDK5R1 / RFU, ZRANB3 / Fold change vs veh, ZRANB3 / RFU, CUL4A / Fold change vs veh, CUL4A / RFU, CCNY / Fold change vs veh, CCNY / RFU, UFL1 / Fold change vs veh, UFL1 / RFU, COG3 / Fold change vs veh, COG3 / RFU, DIAPH2 / Fold change vs veh, DIAPH2 / RFU, SKA2 / Fold change vs veh, SKA2 / RFU, AFF3 / Fold change vs veh, AFF3 / RFU, LMF1 / Fold change vs veh, LMF1 / RFU, IPO11 / Fold change vs veh, IPO11 / RFU, DFFB / Fold change vs veh, DFFB / RFU, FOXP1 / Fold change vs veh, FOXP1 / RFU, CARD8 / Fold change vs veh, CARD8 / RFU, STRN3 / Fold change vs veh, STRN3 / RFU, ADK / Fold change vs veh, ADK / RFU, RASSF2 / Fold change vs veh, RASSF2 / RFU, WIPF1 / Fold change vs veh, WIPF1 / RFU, LARP1B / Fold change vs veh, LARP1B / RFU, RASA1 / Fold change vs veh, RASA1 / RFU, RB1 / Fold change vs veh, RB1 / RFU, PPFIA1 / Fold change vs veh, PPFIA1 / RFU, MAT2A / Fold change vs veh, MAT2A / RFU, CCT5 / Fold change vs veh, CCT5 / RFU, WDR92 / Fold change vs veh, WDR92 / RFU, CUX1 / Fold change vs veh, CUX1 / RFU, TTC7A / Fold change vs veh, TTC7A / RFU, TMEM135 / Fold change vs veh, TMEM135 / RFU, DEPTOR / Fold change vs veh, DEPTOR / RFU, CPM / Fold change vs veh, CPM / RFU, DNAJB6 / Fold change vs veh, DNAJB6 / RFU, CACNA2D3 / Fold change vs veh, CACNA2D3 / RFU, DTX4 / Fold change vs veh, DTX4 / RFU, TFCP2 / Fold change vs veh, TFCP2 / RFU, GMCL1 /// GMCL1P1 / Fold change vs veh, GMCL1 /// GMCL1P1 / RFU, AEBP2 / Fold change vs veh, AEBP2 / RFU, SNHG1 /// SNORD22 /// SNORD25 /// SNORD26 /// SNORD27 /// SNORD28 /// SNORD29 /// SNORD31 / Fold change vs veh, SNHG1 /// SNORD22 /// SNORD25 /// SNORD26 /// SNORD27 /// SNORD28 /// SNORD29 /// SNORD31 / Fold change (Aza/veh), C12orf56 (ProbeSet 11735607_a_at) / Fold change (ACY-1035/veh), C12orf56 (ProbeSet 11735607_a_at) / Fold change (Aza/veh), FGFR1OP (ProbeSet 11751329_s_at) / Fold change (ACY-1035/veh), FGFR1OP (ProbeSet 11751329_s_at) / Fold change (Aza/veh), VPS36 (ProbeSet 11739960_a_at) / Fold change (ACY-1035/veh), VPS36 (ProbeSet 11739960_a_at) / RFU SYPL1 (11715823_x_at) / Fold change /veh SYPL1 (11715823_x_at) / RFU IGFBP7 (11715501_s_at) / Fold change /veh IGFBP7 (11715501_s_at) / RFU REEP3 (11722064_at) / Fold change /veh REEP3 (11722064_at) / RFU IGLL1 (11728026_x_at) / Fold change /veh IGLL1 (11728026_x_at): dose or concentration left out as unconfirmed", "details": "ProbeSet 11730252_s_at; LIST B"}
{"smiles": "Nc1ncn([C@@H]2O[C@H](CO)[C@@H](O)[C@H]2O)c(=O)n1", "note": "[azacitidine]", "values": [{"measurement": "RFU, AHCTF1", "result": 220.95, "unit": "RFU"}]}
